Data as given in patent publication US6808930B1, “Therapeutic agents” (priority 1997, dated 2004).

System: L1210, A549 and HRTEC nuclei
Test: DNA fragmentation in isolated nuclei
Assay type: cell-based
Settings: L1210 and A549 nuclei incubated with Ca2+ inhibitors
Description: Nuclei were purified from L1210, A549 and HRTEC cells and incubated with low concentrations of MAL (0.2 and 0.4 mg/ml). The formation of HMW and oligonucleosome length DNA fragments was examined.
A549, L1210 and HRTEC nuclei were isolated from homogenised cells. Pellet 1 from the homogenisation was washed twice in nuclei buffer for 20 min at 100×g and suspended in nuclei buffer for experiments. Rat liver nuclei was isolated.
A549, L1210 or HRTEC nuclei in suspension were placed in individual wells in a 24-well plate ([…]), mixed with MAL, α-lactalbumin, lactoferrin or BSA (100 μl in nucleus buffer), incubated at 37° C. for 1 hour (L1210,) or 2 hours (A549 and HRTEC), harvested by aspiration, analysed for DNA fragmentation as described above.

SMILES | effect on MAL induced DNA fragmentation
O=C(O)CN(CCN(CC(=O)O)CC(=O)O)CC(=O)O [EDTA, reference compound] | completely blocked the DNA fragmentation
CC(=O)OCOC(=O)CN(CC(=O)OCOC(C)=O)c1ccccc1OCCOc1ccccc1N(CC(=O)OCOC(C)=O)CC(=O)OCOC(C)=O [BAPTA/AM, reference compound] | completely blocked the DNA fragmentation
